Experimental data published in patent US8030282B2, “Motilide polymorphs” (priority 2006, dated 2011).
Converted amounts (≈) assume the structure as drawn.

Experiments:
[1] = Gravimetric vapor sorption (GVS) moisture sorption isotherm; type: physicochemical; settings: for mass gain/loss upon multiple sorption and desorption cycles / weight increase / mass uptake between 0 and 90% RH: GVS, 25° C.; for XRPD re-analysis under ambient conditions after GVS: after GVS weight uptake/loss; for weight increase / mass uptake between 0 and 90% RH: 0 to 90% RH
Description: GVS data was also collected by Pharmorphix, Ltd. All samples were run on a Hiden IGASorp moisture sorption analyzer running CFRSorp software. Sample sizes were typically 10 mg. A moisture adsorption-desorption isotherm was performed as outlined below, with two scans giving one complete cycle. All samples were loaded and unloaded at typical ambient (room) humidity and temperature (40% RH, 25° C.). All samples were analyzed by XRPD after GVS analysis. The standard isotherm was performed at 25° C. at 10% RH intervals over a 0 to 90% RH range. [table]

[2] = Retention of crystallinity on heating or vacuum drying (XRPD); type: physicochemical
Excerpt: XRPD patterns were collected on a Bruker AXS C2 GADDS diffractometer using Cu Kα radiation (40 kV, 40 mA), automated XYZ stage, laser video microscope for auto-sample positioning and a HiStar 2-dimensional area detector. X-ray optics consisted of a single Göbel multilayer mirror coupled with a pinhole collimator of 0.3 mm.
The beam divergence, i.e. the effective size of the X-ray beam on the sample, was approximately 4 mm. A θ-θ continuous scan mode was employed with a sample-detector distance of 20 cm which gave an effective 2θ range of 3.2° to 29.7°. Typically the sample would be exposed to the X-ray beam for 120 seconds.

[3] = Aqueous solubility of polymorphs of Compound Ia; type: physicochemical
[4] = Form stability under aqueous conditions / during solubility analysis; type: physicochemical
[5] = Storage stability at 40° C. and 75% RH (XRPD); type: physicochemical; settings: for change on storage at 40° C. and 75% RH: one week
[6] = target: motilin receptor (Homo sapiens, UniProt O43193); settings: cited from earlier work
motilin receptor, sequence (O43193 whole entry, species assumed): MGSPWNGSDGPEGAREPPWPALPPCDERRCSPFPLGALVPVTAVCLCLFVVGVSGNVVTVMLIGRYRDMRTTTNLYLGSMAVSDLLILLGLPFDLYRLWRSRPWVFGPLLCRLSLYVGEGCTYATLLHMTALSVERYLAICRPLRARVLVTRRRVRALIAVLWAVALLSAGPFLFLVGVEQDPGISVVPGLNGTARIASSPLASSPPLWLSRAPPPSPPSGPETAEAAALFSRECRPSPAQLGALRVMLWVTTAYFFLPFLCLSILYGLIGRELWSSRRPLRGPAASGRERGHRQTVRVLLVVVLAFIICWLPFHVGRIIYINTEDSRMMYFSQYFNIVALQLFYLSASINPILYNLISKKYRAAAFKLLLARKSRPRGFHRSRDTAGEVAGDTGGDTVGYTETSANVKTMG

Compound | mass gain/loss upon multiple sorption and desorption cycles [1] | XRPD re-analysis under ambient conditions after GVS [1] | weight increase / mass uptake between 0 and 90% RH [1] [%] | polymorph change under aqueous conditions / during solubility analysis [4] | further results
CC[C@H]1OC(=O)[C@H](C)[C@@H](O[C@H]2C[C@@](C)(OC)[C@@H](O)[C@H](C)O2)[C@H](C)[C@@H](O[C@@H]2O[C@H](C)C[C@H](N(C)C(C)C)[C@H]2O)[C@](C)(O)C[C@@H](C)[C@H](OCC(=O)NC)[C@H](C)[C@@H](O)[C@]1(C)O [Polymorph II] | changed drastically | loss of crystallinity | – | – | weight loss when kept at between 5 and 0% RH ([1]; between 5 and 0% RH): 4%; crystallinity during vacuum drying ([2]; vacuum drying at 30° C. for 72 h): loses crystallinity
CC[C@H]1OC(=O)[C@H](C)[C@@H](O[C@H]2C[C@@](C)(OC)[C@@H](O)[C@H](C)O2)[C@H](C)[C@@H](O[C@@H]2O[C@H](C)C[C@H](N(C)C(C)C)[C@H]2O)[C@](C)(O)C[C@@H](C)[C@H](OCC(=O)NC)[C@H](C)[C@@H](O)[C@]1(C)O [Polymorph IV] | very uniform | did not lead to a change in XRPD pattern | 3.5 | Neither storage at 40 °C at 75% R^H for 10 weeks nor handling during solubility analysis produced any significant changes | solubility ([3]; water): 770 µg/mL (≈ 922 µM); XRPD pattern on heating ([2]; heating up to the melt): no change in XRPD pattern; change on storage at 40° C. at 75% RH ([5]; 10 weeks): Neither storage at 40 °C at 75% R^H for 10 weeks nor handling during solubility analysis produced any significant changes
CC[C@H]1OC(=O)[C@H](C)[C@@H](O[C@H]2C[C@@](C)(OC)[C@@H](O)[C@H](C)O2)[C@H](C)[C@@H](O[C@@H]2O[C@H](C)C[C@H](N(C)C(C)C)[C@H]2O)[C@](C)(O)C[C@@H](C)[C@H](OCC(=O)NC)[C@H](C)[C@@H](O)[C@]1(C)O [Polymorph V] | – | – | – | converted to Polymorph II | aqueous solubility [3]: 720 µg/mL (≈ 862 µM); change on storage at 40° C. and 75% RH [5]: decreased in crystallinity
CC[C@H]1OC(=O)[C@H](C)[C@@H](O[C@H]2C[C@@](C)(OC)[C@@H](O)[C@H](C)O2)[C@H](C)[C@@H](O[C@@H]2O[C@H](C)C[C@H](N(C)C)[C@H]2O)[C@](C)(O)C[C@@H](C)C(=O)[C@H](C)[C@@H](O)[C@]1(C)O [erythromycin A (1), Erythromycin A] | – | – | – | – | motilin agonist activity [6]: motilin agonist activity

The next lines start with results.

mass gain/loss upon multiple sorption and desorption cycles [1] | XRPD re-analysis under ambient conditions after GVS [1] | weight increase / mass uptake between 0 and 90% RH [1] [%] | Compound | polymorph change under aqueous conditions / during solubility analysis [4] | further results
changed drastically | – | 8.5 | CC[C@H]1OC(=O)[C@H](C)[C@@H](O[C@H]2C[C@@](C)(OC)[C@@H](O)[C@H](C)O2)[C@H](C)[C@@H](O[C@@H]2O[C@H](C)C[C@H](N(C)C(C)C)[C@H]2O)[C@](C)(O)C[C@@H](C)[C@H](OCC(=O)NC)[C@H](C)[C@@H](O)[C@]1(C)O [Polymorph I] | converted to a second polymorph, referred to as Polymorph II | –
changed drastically | loss of crystallinity | 3 | CC[C@H]1OC(=O)[C@H](C)[C@@H](O[C@H]2C[C@@](C)(OC)[C@@H](O)[C@H](C)O2)[C@H](C)[C@@H](O[C@@H]2O[C@H](C)C[C@H](N(C)C(C)C)[C@H]2O)[C@](C)(O)C[C@@H](C)[C@H](OCC(=O)NC)[C@H](C)[C@@H](O)[C@]1(C)O [Polymorph VII] | converted to a mixture of Polymorphs II and IV | weight change by GVS analysis [1]: constant weight loss; aqueous solubility [3]: 750 µg/mL (≈ 898 µM); change on storage at 40° C. and 75% RH [5]: lost crystallinity
changed drastically | – | – | CC[C@H]1OC(=O)[C@H](C)[C@@H](O[C@H]2C[C@@](C)(OC)[C@@H](O)[C@H](C)O2)[C@H](C)[C@@H](O[C@@H]2O[C@H](C)C[C@H](N(C)C(C)C)[C@H]2O)[C@](C)(O)C[C@@H](C)[C@H](OCC(=O)NC)[C@H](C)[C@@H](O)[C@]1(C)O [Polymorph VI] | – | change on storage at 40° C. at 75% RH ([5]; duration not stated): converted to Polymorph IV
